Assay results taken from patent publication US20230278972A1, “SUBSTITUTED HALOALKYL SULFONANILIDE HERBICIDES” (FMC Corporation, priority 2020, published 2023).

How the values were obtained:
Assay type in all cases: in vivo
[1] = system: blackgrass (Alopecurus myosuroides); test: Test A postemergence, blackgrass; details: Postemergence, 0 to 100 scale (0 no effect, 100 complete control)
Outline: (§1)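 Greenhouse pot test in a loam–sand blend; compounds delivered in a non-phytotoxic solvent carrying a surfactant, applied either as a directed spray to soil at seeding or over seedlings 2 to 10 cm high with one to two leaves.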

[2] = system: pigweed (Amaranthus retroflexus); test: Test A preemergence, pigweed; details: for Plant response rating, Pigweed: 125 g ai/ha, visual injury, 0 to 100 scale (0 no effect, 100 complete control), approx. 10 days; for Pigweed plant response rating: 500 g ai/ha, visual injury on 0 to 100 scale (0 no effect, 100 complete control), approximately 10 days
Outline: (§2)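 Preemergence: pigweed seeds in loam soil–sand blend received a directed soil spray of test chemicals in a non-phytotoxic solvent with surfactant. Postemergence: barnyardgrass, wheat and galium in pots of the same soil, 2 to 10 cm tall at one- to two-leaf stage, sprayed with the same formulation.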

kochia (Bassia scoparia) [3] = test: Test A postemergence, kochia; details: Postemergence, 0 to 100 scale (0 no effect, 100 complete control)
Outline: as §1

kochia (Bassia scoparia) [4] = test: Test A preemergence, kochia; details: Preemergence; for Plant response rating, Kochia: 125 g ai/ha, visual injury, 0 to 100 scale (0 no effect, 100 complete control), approx. 10 days; for Kochia plant response rating: 500 g ai/ha, visual injury on 0 to 100 scale (0 no effect, 100 complete control), approximately 10 days
Outline: as §1

[5] = system: barnyardgrass (Echinochloa crus-galli); test: Test A postemergence, barnyardgrass; details: Postemergence, 0 to 100 scale (0 no effect, 100 complete control)
Outline: as §2

[6] = system: Foxtail, Giant (giant foxtail, Setaria faberi); test: Test A preemergence, Foxtail, Giant; details: Preemergence; for Plant response rating, Foxtail, Giant: 125 g ai/ha, visual injury, 0 to 100 scale (0 no effect, 100 complete control), approx. 10 days; for Foxtail, Giant plant response rating: 500 g ai/ha, visual injury on 0 to 100 scale (0 no effect, 100 complete control), approximately 10 days
Outline: as §1

[7] = system: Ryegrass, Italian (Italian ryegrass, Lolium multiflorum); test: Test A postemergence, Ryegrass, Italian; details: Postemergence, 0 to 100 scale (0 no effect, 100 complete control)
Outline: as §1

[8] = system: galium (catchweed bedstraw, Galium aparine); test: Test A postemergence, galium; details: Postemergence, 0 to 100 scale (0 no effect, 100 complete control)
Outline: as §2

[9] = system: Ryegrass, Italian (Italian ryegrass, Lolium multiflorum); test: Test A preemergence, Ryegrass, Italian; details: Preemergence; for Plant response rating, Ryegrass, Italian: 125 g ai/ha, visual injury, 0 to 100 scale (0 no effect, 100 complete control), approx. 10 days; for Ryegrass, Italian plant response rating: 500 g ai/ha, visual injury on 0 to 100 scale (0 no effect, 100 complete control), approximately 10 days
Outline: as §1

corn (Zea mays) = test: Test A postemergence, corn; details: Postemergence, 0 to 100 scale (0 no effect, 100 complete control)
Outline: as §1

[10] = system: wheat (Triticum aestivum); test: Test A postemergence, wheat; details: Postemergence, 0 to 100 scale (0 no effect, 100 complete control)
Outline: as §2

[11] = system: ragweed (common ragweed, Ambrosia artemisiifolia); test: Test A preemergence, ragweed; details: Preemergence; for Plant response rating, Ragweed: 125 g ai/ha, visual injury, 0 to 100 scale (0 no effect, 100 complete control), approx. 10 days; for Ragweed plant response rating: 500 g ai/ha, visual injury on 0 to 100 scale (0 no effect, 100 complete control), approximately 10 days
Outline: as §1

[12] = system: Foxtail, Giant (giant foxtail, Setaria faberi); test: Test A postemergence, Foxtail, Giant; details: Postemergence, 0 to 100 scale (0 no effect, 100 complete control)
Outline: as §1

[13] = system: ragweed (common ragweed, Ambrosia artemisiifolia); test: Test A postemergence, ragweed; details: Postemergence, 0 to 100 scale (0 no effect, 100 complete control)
Outline: as §1

[14] = system: pigweed (Amaranthus retroflexus); test: Test A postemergence, pigweed; details: Postemergence, 0 to 100 scale (0 no effect, 100 complete control)
Outline: as §1

[15] = system: barnyardgrass (Echinochloa crus-galli); test: Test A preemergence, barnyardgrass; details: Preemergence; for Plant response rating, Barnyardgrass: 125 g ai/ha, visual injury, 0 to 100 scale (0 no effect, 100 complete control), approx. 10 days; for Barnyardgrass plant response rating: 500 g ai/ha, visual injury on 0 to 100 scale (0 no effect, 100 complete control), approximately 10 days
Outline: as §1

[16] = 500 g ai/ha, visual injury approx. 10 days

| SMILES | Plant response rating, Blackgrass ([1]; 125 g ai/ha) | Plant response rating, Blackgrass [1, 16] | Plant response rating, Pigweed [2] | Pigweed plant response rating [2] | Plant response rating, Kochia (kochia (Bassia scoparia) [3]; 125 g ai/ha) | Plant response rating, Kochia (kochia (Bassia scoparia) [3]; [16]) | Plant response rating, Kochia (kochia (Bassia scoparia) [4]) | Kochia plant response rating (kochia (Bassia scoparia) [4]) | Plant response rating, Barnyardgrass ([5]; 125 g ai/ha) | Plant response rating, Barnyardgrass [5, 16] | Plant response rating, Foxtail, Giant [6] | Foxtail, Giant plant response rating [6] | Plant response rating, Ryegrass, Italian ([7]; 125 g ai/ha) | Plant response rating, Ryegrass, Italian [7, 16] | Plant response rating, Galium ([8]; 125 g ai/ha) | Plant response rating, Galium [8, 16] | Plant response rating, Ryegrass, Italian [9] | Ryegrass, Italian plant response rating [9] | Plant response rating, Corn (corn (Zea mays); 125 g ai/ha) | Plant response rating, Corn (corn (Zea mays); [16]) | also measured |
| --- | --- | --- | --- | --- | --- | --- | --- | --- | --- | --- | --- | --- | --- | --- | --- | --- | --- | --- | --- | --- | --- |
| Cc1cc(Cl)c(C(=O)N2CCOCC2)cc1N(S(=O)(=O)C(F)(F)F)S(=O)(=O)C(F)(F)F [Compound 250] | 0 | 50 | 100 | 100 | 70 | 90 | 80 | 100 | 20 | 40 | 90 | 100 | 0 | 20 | 50 | 80 | 60 | 90 | 0 | 30 | Plant response rating, Wheat ([10]; 125 g ai/ha): 20; Plant response rating, Wheat [10, 16]: 30; Plant response rating, Ragweed [11]: 80; Ragweed plant response rating [11]: 90; Plant response rating, Foxtail, Giant ([12]; 125 g ai/ha): 0; Plant response rating, Foxtail, Giant [12, 16]: 10; Plant response rating, Ragweed ([13]; 125 g ai/ha): 80; Plant response rating, Ragweed [13, 16]: 90; Plant response rating, Pigweed ([14]; 125 g ai/ha): 80; Plant response rating, Pigweed [14, 16]: 90; Plant response rating, Barnyardgrass [15]: 40; Barnyardgrass plant response rating [15]: 90 |
| Cc1cc(Cl)c(C(=O)N(C)C)cc1NS(=O)(=O)C(F)(F)F [Compound 251] | 20 | 60 | 100 | 100 | 40 | 60 | 90 | 90 | 70 | 70 | 50 | 90 | 30 | 80 | 80 | 80 | 90 | 100 | 0 | 30 | Plant response rating, Wheat ([10]; 125 g ai/ha): 40; Plant response rating, Wheat [10, 16]: 70; Plant response rating, Ragweed [11]: 80; Ragweed plant response rating [11]: 80; Plant response rating, Foxtail, Giant ([12]; 125 g ai/ha): 10; Plant response rating, Foxtail, Giant [12, 16]: 80; Plant response rating, Ragweed ([13]; 125 g ai/ha): 70; Plant response rating, Ragweed [13, 16]: 80; Plant response rating, Pigweed ([14]; 125 g ai/ha): 80; Plant response rating, Pigweed [14, 16]: 80; Plant response rating, Barnyardgrass [15]: 20; Barnyardgrass plant response rating [15]: 90 |
| Cc1cc(Cl)c(C(=O)N2CCCCC2)cc1NS(=O)(=O)C(F)(F)F [Compound 252] | 0 | 0 | 100 | 100 | 30 | 60 | 60 | 80 | 0 | 30 | 100 | 100 | 30 | 70 | 80 | 80 | 60 | 100 | 10 | 0 | Plant response rating, Wheat ([10]; 125 g ai/ha): 0; Plant response rating, Wheat [10, 16]: 40; Plant response rating, Ragweed [11]: 80; Ragweed plant response rating [11]: 90; Plant response rating, Foxtail, Giant ([12]; 125 g ai/ha): 0; Plant response rating, Foxtail, Giant [12, 16]: 40; Plant response rating, Ragweed ([13]; 125 g ai/ha): 10; Plant response rating, Ragweed [13, 16]: 90; Plant response rating, Pigweed ([14]; 125 g ai/ha): 70; Plant response rating, Pigweed [14, 16]: 80; Plant response rating, Barnyardgrass [15]: 40; Barnyardgrass plant response rating [15]: 100 |
| Cc1cc(Cl)c(C(=O)N2CCCCC2)cc1N(S(=O)(=O)C(F)(F)F)S(=O)(=O)C(F)(F)F [Compound 253] | 0 | 0 | 100 | 100 | 30 | 60 | 70 | 80 | 0 | 20 | 100 | 100 | 0 | 0 | 70 | 90 | 60 | 100 | 0 | 0 | Plant response rating, Wheat ([10]; 125 g ai/ha): 0; Plant response rating, Wheat [10, 16]: 0; Plant response rating, Ragweed [11]: 40; Ragweed plant response rating [11]: 40; Plant response rating, Foxtail, Giant ([12]; 125 g ai/ha): 0; Plant response rating, Foxtail, Giant [12, 16]: 0; Plant response rating, Ragweed ([13]; 125 g ai/ha): 30; Plant response rating, Ragweed [13, 16]: 50; Plant response rating, Pigweed ([14]; 125 g ai/ha): 50; Plant response rating, Pigweed [14, 16]: 80; Plant response rating, Barnyardgrass [15]: 60; Barnyardgrass plant response rating [15]: 70 |
